Test results: ChEMBL document CHEMBL1151260, “Expanding the ChemGPS chemical space with natural products” (J Nat Prod, 2005)
pIC50: −log10 of the molar value.

What was measured:
[1] = biological target: T1, Prostaglandin G/H synthase 1 (Homo sapiens, UniProt P23219)
[2] = biological target: T2, Prostaglandin G/H synthase 2 (Homo sapiens) (UniProt P35354); experiment: Inhibition of COX2 at 313 uM
T2 sequence (whole entry): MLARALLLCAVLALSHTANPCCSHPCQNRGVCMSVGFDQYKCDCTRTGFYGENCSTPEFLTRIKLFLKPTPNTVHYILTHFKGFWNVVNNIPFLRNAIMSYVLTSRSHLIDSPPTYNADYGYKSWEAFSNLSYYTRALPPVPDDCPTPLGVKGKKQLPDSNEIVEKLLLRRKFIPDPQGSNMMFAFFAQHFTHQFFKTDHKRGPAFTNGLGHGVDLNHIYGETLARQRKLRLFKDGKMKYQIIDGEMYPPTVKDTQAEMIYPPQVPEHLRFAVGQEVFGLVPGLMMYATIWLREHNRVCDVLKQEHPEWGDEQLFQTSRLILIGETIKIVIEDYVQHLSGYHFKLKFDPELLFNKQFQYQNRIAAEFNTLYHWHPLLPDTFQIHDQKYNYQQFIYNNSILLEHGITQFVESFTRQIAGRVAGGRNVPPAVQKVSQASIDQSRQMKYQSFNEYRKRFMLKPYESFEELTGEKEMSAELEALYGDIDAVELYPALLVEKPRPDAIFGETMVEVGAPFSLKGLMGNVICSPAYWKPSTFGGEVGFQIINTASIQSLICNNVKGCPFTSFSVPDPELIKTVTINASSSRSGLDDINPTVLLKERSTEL

[3] = biological target: T2, Prostaglandin G/H synthase 2 (Homo sapiens); experiment: Inhibition of COX2 at 3.13 uM
[4] = biological target: T1, Prostaglandin G/H synthase 1; conditions: 180 ug/mL
Description: Inhibition of COX1 at 180 ug/mL

[5] = biological target: T1, Prostaglandin G/H synthase 1; experiment: Inhibition of COX1 at 1000 uM
[6] = biological target: T2, Prostaglandin G/H synthase 2 (Homo sapiens); experiment: Inhibition of COX2 at 0.1 ug/mL
[7] = system: SKGT4; experiment: Inhibition of COX2 protein expression in human SKGT4 cells; type: functional, cell-based
[8] = system: SKGT4; experiment: Inhibition of COX2 mRNA expression in human SKGT4 cells; type: functional, cell-based
[9] = biological target: T1, Prostaglandin G/H synthase 1; experiment: Inhibition of COX1 at 200 ug/mL
[10] = biological target: T2, Prostaglandin G/H synthase 2 (Homo sapiens); experiment: Inhibition of COX2 at 2.5 ug/mL
[11] = system: MCF-10A; experiment: Inhibition of COX2 protein expression in human MCF10A cells; type: functional, cell-based
[12] = biological target: T2, Prostaglandin G/H synthase 2 (Homo sapiens); experiment: Inhibition of COX2 at 25 uM
[13] = biological target: T1, Prostaglandin G/H synthase 1; experiment: Inhibition of COX1 at 30 ug/mL
[14] = system: J774.A1; experiment: Inhibition of COX2 protein expression in mouse J774A1 cells; type: functional, cell-based
[15] = system: DLD-1; experiment: Inhibition of COX2 mRNA expression in human DLD1 cells; type: functional, cell-based
[16] = biological target: T1, Prostaglandin G/H synthase 1; experiment: Inhibition of COX1 at 2.5 ug/mL
[17] = system: RAW264.7; experiment: Inhibition of COX2 protein expression in mouse RAW264.7 cells; type: functional, cell-based
[18] = system: J774.A1; experiment: Inhibition of COX2 protein expression in mouse J774A1 cells at 5 uM; type: functional
[19] = biological target: T3, Prostaglandin G/H synthase 2 (Homo sapiens, UniProt P35354); experiment: Inhibition of COX2 at 1000 uM
T3 sequence (P35354 whole entry): T2 sequence (whole entry)

[20] = biological target: T2, Prostaglandin G/H synthase 2 (Homo sapiens); experiment: Inhibition of COX2 at 327 uM
[21] = biological target: T2, Prostaglandin G/H synthase 2 (Homo sapiens); experiment: Inhibition of COX2 at 170 uM

T1 sequence (P23219 whole entry): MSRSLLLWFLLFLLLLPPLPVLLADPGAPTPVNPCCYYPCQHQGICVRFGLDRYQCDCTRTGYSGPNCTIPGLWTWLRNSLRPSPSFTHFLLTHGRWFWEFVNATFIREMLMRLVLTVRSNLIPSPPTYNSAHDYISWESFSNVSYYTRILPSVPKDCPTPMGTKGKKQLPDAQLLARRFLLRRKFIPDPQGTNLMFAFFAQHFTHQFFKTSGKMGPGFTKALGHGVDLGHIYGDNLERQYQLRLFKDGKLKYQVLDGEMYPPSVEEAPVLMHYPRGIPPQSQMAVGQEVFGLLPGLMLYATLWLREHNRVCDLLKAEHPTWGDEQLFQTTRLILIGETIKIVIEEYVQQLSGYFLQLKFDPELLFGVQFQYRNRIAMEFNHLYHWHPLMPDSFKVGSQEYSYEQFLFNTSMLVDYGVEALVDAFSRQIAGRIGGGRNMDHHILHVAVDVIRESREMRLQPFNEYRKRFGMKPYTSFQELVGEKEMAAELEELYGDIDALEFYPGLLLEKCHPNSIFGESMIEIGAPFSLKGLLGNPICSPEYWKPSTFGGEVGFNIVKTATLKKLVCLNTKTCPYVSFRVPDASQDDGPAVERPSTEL

CC(C)=CCC/C(C)=C\CC1=CC(=O)C=C(C)C1=O
pIC50 [1]: 4.19

C=C1CCC[C@]2(C)CC[C@@H]([C@@](C)(O)CO)C[C@]12O
pIC50 [1]: 5.89

O=C(O)[C@H]1O[C@@H](Oc2c(-c3cc(O)c(O)c(O)c3)oc3cc(O)cc(O)c3c2=O)[C@H](O)[C@@H](O)[C@@H]1O
pIC50 [1]: 5.00

CC/C=C/C/C=C/C/C=C/C/C=C/CC/C=C/COCC(=O)O
pIC50 [1]: 4.30

C=C[C@@H](O)C#CC#C[C@@H](O)/C=C/CCCCCCCC(=O)OC(C)=O
pIC50 [1]: 4.14

COc1c(O)cc([C@@H]2Oc3cc(O)cc(O)c3C[C@H]2O)cc1O
pIC50 [1]: 4.92
inhibition [2]: 61%

COc1c(O)cc([C@H]2Oc3cc(O)cc(O)c3C[C@H]2O)cc1O
inhibition [3]: 23%
pIC50 [1]: 5.48

CC/C=C/C/C=C/C/C=C/C/C=C/CCSCCCC(=O)O
pIC50 [1]: 4.09

CC(=O)Oc1ccccc1C(=O)O
inhibition [4]: 52%
inhibition [5]: 46%

CC(C)[C@@H]1CC[C@@H](C)C[C@H]1O
inhibition [6]: 60%

COc1cc(-c2cc(=O)c3c(O)c(OC)c(OC)c(O)c3o2)ccc1O
inhibition [5]: 37%

COc1cc(-c2cc(=O)c3cc(OC)c(OC)cc3o2)ccc1O
inhibition [5]: 37%

COc1cc(/C=C/C(=O)CC(=O)/C=C/c2ccc(O)c(OC)c2)ccc1O
Activity [7]: Dose-dependent effect
Activity [8]: Dose-dependent effect

COc1cc(O[C@@H]2O[C@H](CO)[C@@H](O)[C@H](O)[C@H]2O)cc2oc(-c3ccc(O)cc3)cc(=O)c12
inhibition [9]: 13%

C[C@@H]1O[C@@H](O[C@H]2[C@H](Oc3cc(O)c4c(=O)cc(-c5ccc(O)cc5)oc4c3)O[C@H](CO)[C@@H](O)[C@@H]2O)[C@H](O)[C@H](O)[C@H]1O
inhibition [10]: 20%

O=C(/C=C/c1ccc(O)c(O)c1)O[C@H](Cc1ccc(O)c(O)c1)C(=O)O
inhibition [5]: 58%

O=C(CCc1ccc(O)c(O)c1)C[C@@H](O)CCc1ccc(O)c(O)c1
Activity [11]: Dose-dependent effect

O=C(O[C@@H]1Cc2c(O)cc(O)cc2O[C@@H]1c1cc(O)c(O)c(O)c1)c1cc(O)c(O)c(O)c1
inhibition [12]: 13%
inhibition [13]: 51%

O=C1C[C@@H](c2ccc(O)cc2)Oc2cc(O)cc(O)c21
Activity [14]: Dose-dependent effect

O=c1c(O)c(-c2ccc(O)c(O)c2)oc2cc(O)cc(O)c12
Activity [15]: Dose-dependent effect
inhibition [10]: 40%
inhibition [16]: 90%

O=c1c(O[C@@H]2O[C@H](CO)[C@@H](O)[C@H](O)[C@H]2O)c(-c2ccc(O)c(O)c2)oc2cc(O)cc(O)c12
inhibition [10]: 25%

O=c1cc(-c2ccc(O)c(O)c2)oc2cc(O)cc(O)c12
inhibition [16]: 75%

Oc1cc(O)c2c(c1)O[C@H](c1ccc(O)c(O)c1)[C@H](O)C2 [(-)-EPICATECHIN]
pIC50 [15]: 3.38

C=C1C(=O)C(O)=C[C@@H]2[C@]3(C)CC[C@](C)(C(=O)CO)C[C@@H]3CC[C@]12C [AKENDO 3]
pIC50 [1]: 4.47

O=c1cc(-c2ccc(O)cc2)oc2cc(O)cc(O)c12 [APIGENIN]
pIC50 [17]: 6.30
inhibition at 5 µM [18]: 64%
inhibition [5]: 65%

C[C@@H]1OC(O[C@@H]2[C@@H](O)[C@H](OCCc3ccc(O)c(O)c3)O[C@H](CO[C@@H]3OC[C@](O)(CO)[C@H]3O)[C@H]2OC(=O)/C=C/c2ccc(O)c(O)c2)[C@H](O[C@@H]2OC[C@H](O)[C@H](O)[C@H]2O)[C@H](O)[C@H]1O (stereo not given in full) [BALLOTETROSIDE]
pIC50 [1]: 3.00

C=C1CC/C=C(\C)C(=O)[C@H](OC(C)=O)[C@@H]2[C@@H]1CC2(C)C [BUDDLEDIN A]
pIC50 [1]: 4.85

O=C(/C=C/c1ccc(O)c(O)c1)OCCc1ccccc1 [CAFFEIC ACID PHENETHYL ESTER]
pIC50 [1]: 4.24

COc1cc(CNC(=O)CCCC/C=C/C(C)C)ccc1O [CAPSAICIN]
pIC50 [1]: 5.42

Cc1ccc(C(C)C)cc1O [CARVACROL]
pIC50 [1]: 5.40

Oc1cc(O)c2c(c1)O[C@H](c1ccc(O)c(O)c1)[C@@H](O)C2 [CIANIDANOL]
pIC50 [1]: 4.10

COc1cc2oc(-c3ccc(O)cc3)cc(=O)c2c(O)c1OC [CIRSIMARITIN]
IC50 [19]: 6%

COc1cc(/C=C/CO)ccc1O[C@@H]1O[C@H](CO)[C@@H](O)[C@H](O)[C@H]1O [CONIFERIN]
pIC50 [1]: 4.12

O=c1ccc2ccc(O)c(O)c2o1 [DAPHNETIN]
pIC50 [1]: 3.85

C=CCc1ccc(O)c(OC)c1 [EUGENOL]
pIC50 [1]: 4.96
inhibition [5]: 97%

C=CCc1ccc(OC(C)=O)c(OC)c1 [EUGENYL ACETATE]
pIC50 [1]: 5.52

C=C[C@@H](O)C#CC#C[C@@H](O)/C=C\CCCCCCC [FALCARINDIOL]
pIC50 [1]: 4.18

COc1ccc2cc1Oc1ccc(cc1)C[C@H]1c3cc(c(OC)cc3CCN1C)Oc1c(O)c(OC)cc3c1[C@H](C2)N(C)CC3 [FANGCHINOLINE]
pIC50 [1]: 3.89

COc1cc2ccc(=O)oc2c(O)c1O [FRAXETIN]
pIC50 [1]: 3.28

O=c1c(O)c(-c2ccccc2)oc2cc(O)cc(O)c12 [GALANGIN]
inhibition at 5 µM [18]: 59%

Oc1cc(O)c2c(c1)O[C@H](c1cc(O)c(O)c(O)c1)[C@@H](O)C2 [GALLOCATECHIN]
inhibition [20]: 46%
pIC50 [1]: 4.02

O=c1c(-c2ccc(O)cc2)coc2cc(O)cc(O)c12 [GENISTEIN]
pIC50 [1]: 4.10

CC1(C)CC[C@]2(C)CC[C@]3(C)[C@H]4CC=C5[C@@H](CCC(=O)C5(C)C)[C@]4(C)CC[C@@]3(C)[C@@H]2C1 [GLUTINONE]
pIC50 [1]: 5.44

C[C@@H]1CC(=O)[C@]2(CO)[C@H](CCC[C@]23CO3)[C@@]12C[C@@H](c1ccoc1)OC2=O [GNAPHALIN]
pIC50 [1]: 4.40

CC(C)=CCc1c([C@@H]2CCc3ccc(O)cc3O2)cc2c(c1O)OC(C)(C)C=C2 [KAZINOL B]
pIC50 [1]: < 4.00

C=C(C)[C@H](CC=C(C)C)Cc1c(O)cc(OC)c(C(=O)/C=C/c2ccc(O)cc2O)c1O [KURAIDIN]
pIC50 [1]: 6.22

C=C(C)C(CC=C(C)C)Cc1c(O)cc(OC)c2c1O[C@H](c1ccc(O)cc1O)CC2=O (stereo not given in full) [KURARINONE]
pIC50 [1]: 6.22

C=C1CCC[C@]2(C)CC[C@@H]([C@@](C)(O)CO)C[C@@]12O [KUTDTRIOL]
pIC50 [1]: 4.41

CC(C)=CCc1c(-c2ccc(O)cc2O)oc2c(CC=C(C)C)c(O)cc(O)c2c1=O [KUWANON C]
pIC50 [1]: 4.21

CCCCC/C=C\C/C=C\CCCCCCCC(=O)O [LINOLEIC ACID]
pIC50 [1]: 4.89

CC(=O)[C@H]1CC[C@]2(C)CC[C@@H]([C@](C)(O)CO)C[C@]12O [LUCINONE]
pIC50 [1]: 4.37

CC(C)=CCc1c(O)ccc2ccc(=O)oc12 [OSTHENOL]
pIC50 [1]: 4.19

COc1c(O)cc([C@H]2Oc3c(c(O)cc(O)c3[C@H]3c4c(O)cc(O)cc4O[C@H](c4ccc(O)cc4)[C@@H]3O)C[C@H]2O)cc1O [OURATEAPROANTHOCYANIDIN A]
inhibition [21]: 37%
pIC50 [1]: 3.86

OC[C@H]1O[C@@H](OCCc2ccc(O)cc2)[C@H](O)[C@@H](O)[C@@H]1O [SALIDROSIDE]
pIC50 [1]: 4.14

CC(C)=CCC12Oc3cc(O)c(C4=CC5(C)CC(C4)c4ccc(O)cc4O5)c(O)c3C(=O)C1(O)Oc1cc(O)ccc12 (stereo not given) [SANGGENON B]
pIC50 [1]: 4.38

CC(C)=CCC12Oc3cc(O)ccc3C1(O)Oc1cc(O)c([C@H]3C=C(C)C[C@@H](c4ccc(O)cc4O)[C@@H]3C(=O)c3ccc(O)cc3O)c(O)c1C2=O (stereo not given in full) [SANGGENON D]
pIC50 [1]: 4.23

COc1cc(/C=C/CO)cc(OC)c1O[C@@H]1O[C@H](CO)[C@@H](O)[C@H](O)[C@H]1O [SYRINGIN]
pIC50 [1]: 4.44

CC(/C=C/C=C(\C)C(=O)O)=C\C=C\C=C(C)\C=C\C=C(/C)C(=O)O [TRANSCROCETIN]
pIC50 [1]: 4.55
